How the values were obtained:
[1] = test system: BMAA4-2 cell line; assay: Sequence change analysis of antibody variable regions according to NGS (NUS, SBL); assay type: cell-based, chicken; conditions: BMAA4-2 cells, versus negative control sample
Description: A frozen stock of the BMAA4-2 cell line (3.0×10^6 cells) was awaken with 10 mL of CS(−) medium, using a 25 cm^2 Flask, and the cells were then cultured in a CO2 incubator (39.5° C., 5% CO2). On the following day, 2 mL each of a CS(−) medium, to which each drug had been added, was added into each well of a 12-well dish (Nunc, 150628), and the cells were then seeded thereon to a cell density of 6.0×10^4 cells/mL (wherein the cell concentration and the survival rate were measured using CASY cell counter). After individual samples had been cultured for 2 days, the samples were subcultured under the same conditions to result in a cell density of 1.0×10^4 cells/mL. After completion of the culture for 3 days, individual samples were subcultured in a 25 cm^2 Flask to result in a cell density of 6.0×10^4 cells/mL with respect to 10 mL of the medium under the same conditions. After completion of the culture for 2 days (Day 7 of the culture), individual samples (in each amount of 2.0×10^6 cells) were recovered in a 1.5-mL tube, and thereafter, a supernatant was removed by centrifugation at 1,000×g for 5 min. The residue was re-suspended in 1 mL of D-PBS(−) (Nacalai Tesque, 14249-24), and a supernatant was then removed by centrifugation at 1,000×g for 5 min. The residue was preserved at −80° C. Moreover, individual samples from the remaining cells were subcultured in a 12-well dish to result in a cell density of 6.0×10^4 cells/mL with respect to 2 mL of the medium under the same conditions. After completion of the culture for 2 days, individual samples were subcultured under the same conditions to result in a cell density of 1.0×10^4 cells/mL. After completion of the culture for 3 days, individual samples were subcultured in a 25 cm^2 Flask to result in a cell density of 6.0×10^4 cells/mL with respect to 10 mL of the medium under the same conditions. After completion of the culture for 2 days (Day 14 of the culture), individual samples (in each amount of 2.0×10^6 cells) were recovered in a 1.5-mL tube, and thereafter, a supernatant was removed by centrifugation at 1,000×g for 5 min. The residue was re-suspended in 1 mL of D-PBS(−), and a supernatant was then removed by centrifugation at 1,000×g for 5 min. The residue was preserved at −80° C.
A frozen stock of the BMAA4-2 cell line (3.0×10^6 cells) was awaken with 10 mL of CS(−) medium, using a 25 cm^2 Flask, and the cells were then cultured in a CO2 incubator (39.5° C., 5% CO2). On the following day, 1 mL each of a CS(−) medium, to which each drug had been added, was added into each well of a 24-well dish, and the cells were then seeded thereon to a cell density of 3.0×10^5 cells/mL (wherein the cell concentration and the survival rate were measured using CASY cell counter). […]

[2] = test system: BMAA4-2 cell line; assay: Sequence change analysis using BMAA4-2 cell line according to flow cytometry (cIgM+_Sema3A− population); assay type: cell-based, chicken; conditions: BMAA4-2 cells, FCM at 1 week of culture, versus negative control CS(−)
Description: A frozen stock of the BMAA4-2 cell line (3.0×10^6 cells) was awaken with 10 mL of CS(−) medium, using a 25 cm^2 Flask (Corning, 430639), and the cells were then cultured in a CO2 incubator (SANYO CO2 Incubator MCO-20AIC, 39.5° C., 5% CO2). On the following day, 500 μL each of a CS(−) medium, to which each drug had been added, was added into each well of a 48-well dish (Nunc, 150687), and the cells were then seeded thereon to a cell density of 6.0×10^4 cells/mL (wherein the cell concentration and the survival rate were measured using CASY cell counter (Nepa Gene)). After individual samples had been cultured for 2 days, the samples were subcultured under the same conditions to result in a cell density of 1.0×10^4 cells/mL. […] Thereafter, a plot, in which the vertical axis indicated APC (AF647-labeled Sema3A) and the longitudinal axis indicated PE (Mouse Anti-Chicken IgM-PE), was developed, and the percentage of PE+ (cIgM+)_APC− (Sema3A−) cells was then calculated.
Using the BMAA4-2 cell line, a system for screening for a diversification-promoting compound was constructed (FIG. 1). […] Thus, the percentage of cIgM+_Sema3A− populations under individual culture conditions is measured and compared according to FCM, so that the effect of promoting changes in the amino acid sequences (i.e., the effect of promoting the diversification of the amino acid sequences) can be evaluated.

SMILES: Cc1nc(NC(=O)N2CCC[C@H]2C(N)=O)sc1-c1csc(C(C)(C)C)n1 [A66]
- NUS (number of unique sequences), antibody heavy chain variable region amino acid sequences ([1]; heavy chain): higher values than the negative control sample
- SBL (sum of branch length), antibody heavy chain variable region amino acid sequences ([1]; heavy chain): higher values than the negative control sample
- NUS (number of unique sequences), antibody light chain variable region amino acid sequences ([1]; light chain): higher values than the negative control sample
- SBL (sum of branch length), antibody light chain variable region amino acid sequences ([1]; light chain): higher values than the negative control sample
- percentage of cIgM+_Sema3A− populations (sequence change-promoting action) [2]: highest sequence change-promoting action
